In patent US20240261294A1, “METHOD FOR TREATING IDH INHIBITOR-RESISTANT SUBJECTS” (Eli Lilly and Company, priority 2021, published 2024) one finds IC50 data, which are given here for 1 compound.

One assay deals with T1, IDH2 R172K_Q316E cis (Homo sapiens, UniProt P48735, Q316E/R172K).
T1 construct: expressed in transfected cells; host or cells: U-87 MG
T1 sequence (P48735 40-452 R172K/Q316E): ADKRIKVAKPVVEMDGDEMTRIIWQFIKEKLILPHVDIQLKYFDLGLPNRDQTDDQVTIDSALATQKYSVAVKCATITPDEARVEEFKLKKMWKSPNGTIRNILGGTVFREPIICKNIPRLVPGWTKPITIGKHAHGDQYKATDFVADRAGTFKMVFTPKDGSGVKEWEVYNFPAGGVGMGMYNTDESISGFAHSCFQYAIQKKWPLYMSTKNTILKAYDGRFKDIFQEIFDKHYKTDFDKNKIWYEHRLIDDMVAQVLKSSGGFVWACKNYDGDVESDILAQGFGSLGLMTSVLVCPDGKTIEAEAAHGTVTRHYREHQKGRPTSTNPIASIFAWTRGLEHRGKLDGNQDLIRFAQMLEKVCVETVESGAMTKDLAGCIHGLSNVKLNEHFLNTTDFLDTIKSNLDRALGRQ
Nature of the assay: Inhibition of 2-HG production in IDH2 mutant U-87 MG cells. In kind it is cell-based. The conditions noted are these: 16 hours incubation, 50K cells/well, 100 μl media/well, read-out: Relative IC50 (nM) Mean, inhibition of 2-HG production. How it is done:
(§1) Compounds and Formulation. Compound A may be synthesized as described in WO/18/111707. Compound A is prepared as a 20 mM stock in 100% DMSO (dimethyl sulfoxide) (Sigma, D2438) and diluted serially in 100% DMSO to achieve the desired concentrations. DMSO preparations are further diluted with cell culture media prior to addition in the assay.
(§2) Cell lines. U-87 MG cells (ATCC, HTB-14) are cultured and assayed in MEM (Gibco, 11095) with 2 mM GlutaMAX (Gibco, 35050), 1 mM Pyruvate (Gibco, 11360), 0.1 mM NEAA ((Non-essential amino acid) Gibco, 11140) and 10% dialyzed FBS (Fetal bovine serum) (Gibco, 26400).
(§3) Cell-based inhibition assays. Cell-based assays are performed by measuring 2-HG in U-87 MG cells in which IDH2 mutations are expressed.
(§4) DNA constructs encoding IDH2 mutations are introduced into U-87 MG cells using transfection (Promega FuGENE HD, E2311) or lentiviral transduction, and the IDH2-mutant expressing cell lines are selected using blasticidin (5 μg/ml) or puromycin (1 μg/ml). Second site mutations (Q316E, I319M, P167R, and G260A) are evaluated in cis (same monomer as driver mutation within dimer) or in trans (opposite monomer from driver mutation in dimer). For compound treatments, 12,500 or 50,000 cells per well in culture medium (150 μl or 100 μl, respectively) are plated in 96 well cell culture plates (Falcon, 353377) 2 hrs prior to treatment. Cells are treated with serial dilutions of compound A in standard growth media. Plates are incubated in a mammalian cell culture incubator (humidified, 37° C., 5% CO2) for 16 or 72 hrs. Following the incubation period, the media is aspirated and cell extracts are prepared by addition of ice-cold 80% methanol/20% water (100 μL) containing liquid chromatography-mass spectrometry (LC-MS) internal standards (1 μM ^13C4 α-KG and ^13C5 2-HG) per well for ion pairing LC-MS method. 96-well sample plates are then sealed, shaken at 450 rpm for 10 min, and then placed at −20° C. and stored until LC-MS analysis.
(§5) LC-MS metabolite analysis of conditioned media and cell lysates. The effect of inhibitors on the concentrations of 2-HG are determined by LC-MS analysis of cell lysates using an ion-pairing method as described below.
(§6) Calibration curves are prepared by spiking 2-HG and α-KG into 80% methanol/20% water containing LC-MS internal standards (1 μM ^13C4 α-KG and 1 μM ^13C5 2-HG). The quantitation of 2-HG and α-KG is accomplished using an AB Sciex 6500 mass spectrometer with an Electrospray Ionization (ESI) probe and interfaced with an Ultra Performance Liquid Chromatography (UHPLC) system in the negative multiple-reaction monitoring (MRM) mode. The UHPLC system consists of an Agilent 1290 binary pump, thermostatted column compartment (TCC), and sampler. The injection volume is 1 μL for cell culture extracts. The extracts are chromatographically resolved using a Hypercarb column, 2.1×20 mm, […] Javelin HTS (Thermo Scientific, PN: 35005-022135). Mobile phase A is water/10 mM tributylamine/15 mM acetic acid. Mobile phase B is acetonitrile/20 mM tributylamine/30 mM acetic acid. The solvent flow rate is 1.0 mL/min. The isocratic condition is kept at 26% mobile phase B. The valve, sample loop, and needle are washed with 50% acetonitrile: 50% methanol for 20 seconds. The column temperature is kept at 55° C. Calibration curves are calculated by least-square linear regression with 1/x weighting. 2-HG and α-KG are quantified using standard curve and ratio of the peak area of analytes to internal standard. Data analysis is performed using MultiQuant 3.0 (AB Sciex). The raw data are exported to Microsoft Excel spreadsheets.
(§7) Determination of IC50 Curves. IC50 curves for each compound are obtained using four parameter data fitting analysis in GraphPad/Prism software.

The next assay has as its target T2, IDH2 R140Q + 1319M trans (Homo sapiens, UniProt P48735, I319M/R140Q).
T2 sequence (P48735 40-452 R140Q): T1 sequence (P48735 40-452 R172K/Q316E) with R101Q, K133R, E277Q
T2 sequence (P48735 40-452 I319M): T1 sequence (P48735 40-452 R172K/Q316E) with K133R, E277Q, I280M
The description is as above. The format is cell-based. The conditions noted are these: 72 hours incubation, 12.5K cells/well. How it is done:
as §1, §2, §3, §4, §5, §6, §7

Where a chain is given by its changes, count along the chain named. Where two headings read alike, the source gives them in different places.

Turning to `C=CC(=O)N1CCN([C@@H](CC2CC2)c2ccc([C@H](C)Nc3ncc4c(n3)N(CC)C(=O)OC4)cc2)CC1` [Compound A, 7-[[(1S)-1-[4-[(1S)-2-cyclopropyl-1-(4-prop-2-enoylpiperazin-1-yl)ethyl]phenyl]ethyl]amino]-1-ethyl-4H-pyrimido[4,5-d][1,3]oxazin-2-one], the IC50 – broadly, the concentration needed to halve the response being measured – is 76 nM on IDH2 R172K_Q316E cis; 12.7 nM at IDH2 R140Q + 1319M trans (IDH2 R140Q + 1319M trans, 150 μl media/well, read-out: IC50, inhibition of 2-HG production); 18 nM at IDH2 R140Q + 1319M trans (IDH2 R140Q_I319M trans, read-out: Relative IC50 (nM) Mean, inhibition of 2-HG production).
